From patent US11806790B2, “Biosynthesis of metal nanoparticles” (KING SAUD UNIVERSITY, priority 2019, dated 2023)

Key:
Parameters in all cases: key: R = resistant; S = susceptible; BLAC = Beta-lactamase positive
[1] = system: E. coli (S); experiment: Susceptibility test of Gram negative Bacteria; type: cell-based
[2] = system: A. baumannii (R); experiment: Susceptibility test of Gram negative Bacteria; type: cell-based
[3] = system: A. baumannii (S); experiment: Susceptibility test of Gram negative Bacteria; type: cell-based
[4] = system: E. coli (R); experiment: Susceptibility test of Gram negative Bacteria; type: cell-based
[5] = system: S. epidermidis (S); experiment: Susceptibility test of Gram positive Bacteria; type: cell-based
[6] = system: S. aureus (S); experiment: Susceptibility test of Gram positive Bacteria; type: cell-based
[7] = system: MRSA; experiment: Susceptibility test of Gram positive Bacteria; type: cell-based, Methicillin-resistant S. aureus
[8] = system: S. epidermidis (R); experiment: Susceptibility test of Gram positive Bacteria; type: cell-based

Row | Compound | Susceptibility test [1] | Susceptibility test [2] | Susceptibility test [3] | Susceptibility test [4] | Susceptibility test [5] | Susceptibility test [6] | Susceptibility test [7] | Susceptibility test [8]
1 | CC1(C)S[C@@H]2[C@H](NC(=O)[C@H](N)c3ccc(O)cc3)C(=O)N2[C@H]1C(=O)O [Amoxicillin] | S | R | S | R | – | – | – | –
2 | CC1(C)S[C@@H]2[C@H](NC(=O)[C@H](N)c3ccccc3)C(=O)N2[C@H]1C(=O)O [Ampicillin] | S | R | – | R | S | BLAC | BLAC | R
3 | C[C@H]1[C@H](NC(=O)/C(=N\OC(C)(C)C(=O)O)c2csc(N)n2)C(=O)N1S(=O)(=O)O [Aztreonam] | S | R | – | R | – | – | – | –
4 | CC(=O)OCC1=C(C(=O)O)N2C(=O)[C@@H](NC(=O)Cc3cccs3)[C@H]2SC1 [Cefalotin] | S | – | – | R | – | – | – | –
5 | C=CC1=C(C(=O)O)N2C(=O)[C@@H](NC(=O)/C(=N\OCC(=O)O)c3csc(N)n3)[C@H]2SC1 [Cefixime] | S | R | – | R | – | – | – | –
6 | CO/N=C(\C(=O)N[C@@H]1C(=O)N2C(C(=O)O)=C(COC(C)=O)CS[C@H]12)c1csc(N)n1 [Cefotaxime] | – | R | S | – | – | – | – | R
7 | CO[C@@]1(NC(=O)Cc2cccs2)C(=O)N2C(C(=O)O)=C(COC(N)=O)CS[C@@H]21 [Cefoxitin] | – | R | – | – | S | Negative. | Positive. | R
8 | CO/N=C(\C(=O)N[C@@H]1C(=O)N2C(C(=O)O)=C(COC(N)=O)CS[C@H]12)c1ccco1 [Cefuroxime] | – | R | S | R | – | – | – | –
9 | CO/N=C(\C(=O)N[C@@H]1C(=O)N2C(C(=O)O)=C(CSc3nc(=O)c(O)nn3C)CS[C@H]12)c1csc(N)n1 [Ciftriaxone] | – | R | – | – | – | – | – | –
10 | O=C(O)c1cn(C2CC2)c2cc(N3CCNCC3)c(F)cc2c1=O [Ciprofloxacin] | – | – | – | – | S | S | S | R
11 | CCC[C@@H]1C[C@@H](C(=O)N[C@@H]([C@H]2O[C@H](SC)[C@H](O)[C@@H](O)[C@H]2O)[C@H](C)Cl)N(C)C1 [Clindamycin] | – | – | – | – | S | S | – | R
12 | CC[C@H]1OC(=O)[C@H](C)[C@@H](O[C@H]2C[C@@](C)(OC)[C@@H](O)[C@H](C)O2)[C@H](C)[C@@H](O[C@@H]2O[C@H](C)C[C@H](N(C)C)[C@H]2O)[C@](C)(O)C[C@@H](C)C(=O)[C@H](C)[C@@H](O)[C@]1(C)O [Erythromycin] | – | – | – | – | S | R | – | R
13 | C[C@@H](O)[C@H]1C(=O)N2C(C(=O)O)=C(SCCN=CN)C[C@H]12 [Imipenem] | – | – | – | – | S | S | R | R
14 | C/C(=C\C(=O)OCCCCCCCCC(=O)O)C[C@@H]1OC[C@H](C[C@@H]2O[C@H]2[C@@H](C)[C@H](C)O)[C@@H](O)[C@H]1O [Mupirocin] | – | – | – | – | S | S | S | R
15 | O=C1CN(/N=C/c2ccc([N+](=O)[O-])o2)C(=O)N1 [Nitrofurantoin] | – | R | – | – | – | – | – | –
16 | Cc1onc(-c2ccccc2)c1C(=O)N[C@@H]1C(=O)N2[C@@H]1SC(C)(C)[C@@H]2C(=O)O [Oxacillin] | – | – | – | – | S | S | R | R
17 | CC1(C)S[C@@H]2[C@H](NC(=O)Cc3ccccc3)C(=O)N2[C@H]1C(=O)O [Penicillin G] | – | – | – | – | S | BLAC | BLAC | R
18 | Amoxicillin-Clavulanate | – | R | – | – | S | S | R | R
19 | Gentamycin | – | – | – | – | S | S | S | R
20 | Trimethoprim-Sulfamethoxazole | – | – | – | – | S | S | S | R
